From patent publication US7319153B2, “6,13-Bis(thienyl)pentacene compounds” (3M Innovative Properties Company, priority 2005, dated 2008)
Read-outs that look alike come from different tables or passages of the source.

Legend:
[1] = isolation and purification; cited from earlier work
[2] = Solubility in tetrahydrofuran-d8 by proton NMR of saturated solutions; format: physicochemical
Protocol: The solubility of each compound prepared in Examples 1 to 4 was determined by the following method. The proton NMR spectra of saturated solutions of the compounds prepared in Examples 1 to 4 dissolved in tetrahydrofuran-d8 were compared with the proton NMR spectrum of a standard solution (i.e., known concentration) of the compound of Example 2, which was 2-hexyl-5-[ 13-(5-hexylthien-2-yl)pentacene-6-yl]thiophene, dissolved in tetrahydrofuran-d8. The same lot of tetrahydrofuran-d8 was used to make all of the solutions. The standard solution was prepared by dissolving 7.0 mg of the compound of Example 2 in 936 mg of tetrahydrofuran-d8 to give a 0.742 weight percent solution. Saturated solutions of the compounds of Examples 1 to 4 were prepared by placing an excess of the corresponding compound in approximately 1 mL of tetrahydrofuran-d8 and mixing for 30 minutes. The solutions were filtered and placed in an NMR tube and the corresponding proton NMR spectra were obtained.
For the standard (0.742 weight percent solution of the compound of Example 2), the NMR integration for the absorption at 8.59 ppm (the most down-field absorption corresponding to the four protons at positions 5, 7, 12 and 14) was compared to the absorption of the residual protio-tetrahydrofuran at 3.6 ppm to give a relative ratio of moles of the compound of Example 2 to moles of protio-tetrahydrofuran of 0.33. The molar ratio of the compound of Example 2 to tetrahydrofuran (protio- and deutero-) in the standard solution is 8.83×10^−4. This molar ratio (8.83×10^−4) divided by the relative ratio of moles of the compound of Example 2 to moles of protio-tetrahydrofuran (0.33) gave a factor of 2.68×10^−3. Multiplying this factor by the proton NMR integration for the saturated solutions of the corresponding compounds of Example 1 to 4 gave the ratio of moles of pentacene derivative to moles of tetrahydrofuran in the saturated solutions. This allowed the calculation of the concentrations for the various solutions of compounds of Examples 1 to 4 as shown in the table below.

[3] = Stability in tetrahydrofuran (endoperoxide formation by proton NMR); format: physicochemical; details: for Mole percent impurity—120 hours: endoperoxide in tetrahydrofuran-d8 after 120 hours, protected from light; for Mole percent impurity—120 hours / Mole percent increase: room temperature; for Mole percent impurity—initial: endoperoxide in tetrahydrofuran-d8 solution; for Mole percent increase: increase of endoperoxide over 120 hours in tetrahydrofuran-d8, protected from light
Protocol: The solution stabilities of the compounds of Examples 1 to 4 were determined by proton NMR analysis of saturated solutions of the corresponding compounds in tetrahydrofuran-d8. Comparing the proton NMR integration of the four protons at positions 5, 7, 12 and 14 (8.51 ppm to 8.69 ppm) to the integration of the four corresponding protons from the endoperoxide (the major and only detectable decomposition product, 7.93 ppm to 7.98 ppm), the percent increase of this impurity was determined for each compound. The solutions were prepared by dissolving the corresponding compound in tetrahydrofuran-d8 and the proton NMR spectra were obtained to determine the initial concentration of endoperoxide for each sample. The solutions were allowed to stand protected from light at room temperature (i.e., 20° C. to 25° C.) for 120 hours. Proton NMR spectra of the aged samples were taken and the increase in absorption of the endoperoxide was used to calculate the data shown in Table 3. The formation of the endoperoxide is shown in the following reaction for compounds of Formula II.

[4] = small quantity extracted into refluxing 1,2-dichlorobenzene; cited from earlier work
[5] = saturated solution in tetrahydrofuran-d8, mixed 30 minutes, filtered

Structure (SMILES)	Molarity in THF [2, 5]	Moles of compound/moles of THF [2, 5]	Weight percent in THF [2, 5] [weight percent]	Mole percent impurity—120 hours [3] [mole percent]	Mole percent impurity—initial [3] [mole percent]	Mole percent increase [3] [mole percent]	Molarity in THF [2]	Moles of compound/moles of THF [2]	air and light sensitivity [1]	time to bleaching [4]
C[Si](C)(C)c1cc2cc3cc4cc5cc([Si](C)(C)C)c([Si](C)(C)C)cc5cc4cc3cc2cc1[Si](C)(C)C [2,3,9,10-tetrakis(trimethylsilyl)pentacene]	–	–	–	–	–	–	–	–	highly air- and light-sensitive	–
C[Si](C)(C)c1ccc(-c2c3cc4ccccc4cc3c(-c3ccc([Si](C)(C)C)s3)c3cc4ccccc4cc23)s1 [Example 3, trimethyl(5-{13-[5-(trimethylsilyl)thien-2-yl]pentacen-6-yl}thien-2-yl)silane]	3.54 × 10^−2	2.94 × 10^−3	2.34	4.76	1.96	2.80	–	–	–	–
c1ccc2cc3cc4cc5ccccc5cc4cc3cc2c1 [pentacene]	–	–	–	–	–	–	–	–	–	less than 5 minutes

Further lines, with some results ahead:

Molarity in THF [2, 5]	Moles of compound/moles of THF [2, 5]	Weight percent in THF [2, 5] [weight percent]	Mole percent impurity—120 hours [3] [mole percent]	Mole percent impurity—initial [3] [mole percent]	Mole percent increase [3] [mole percent]	Molarity in THF [2]	Moles of compound/moles of THF [2]	Structure (SMILES)	air and light sensitivity [1]	time to bleaching [4]
6.58 × 10^−3	5.35 × 10^−4	0.327	21.26	5.66	15.60	–	–	c1csc(-c2c3cc4ccccc4cc3c(-c3cccs3)c3cc4ccccc4cc23)c1 [Example 1, 2-(13-thien-2-ylpentacene-6-yl)thiophene]	–	–
1.22 × 10^−1	1.08 × 10^−2	8.35	10.71	2.91	7.80	–	–	CCCCCCc1ccc(-c2c3cc4ccccc4cc3c(-c3ccc(CCCCCC)s3)c3cc4ccccc4cc23)s1 [Example 2, 2-hexyl-5-[13-(5-hexylthien-2-yl)pentacene-6-yl]thiophene]	–	–
–	–	0.135	6.54	2.91	3.63	1.98 × 10^−3	1.61 × 10^−4	c1csc(-c2ccc(-c3c4cc5ccccc5cc4c(-c4ccc(-c5cccs5)s4)c4cc5ccccc5cc34)s2)c1 [Example 4, 5-[13-(2,2′-bithien-5-yl)pentacen-6-yl]-2,2′-bithiophene]	–	–
